Test results published in patent publication US20230190852A1, “COMPOSITIONS AND METHODS FOR JOINT HEALTH” (Unigen, Inc., priority 2013, published 2023).
Marks after values point to notes of the source that are not given here.

Assays:
[1] = system: Rabbit cartilage explants; test: Ex vivo glycosaminoglycans (GAG) release assay; assay type: cell-based; conditions: for activity at 6.25 µg/mL / activity at 12.5 µg/mL / activity at 25 µg/mL / activity at 50 µg/mL / activity at 100 µg/mL: Oryctolagus cuniculus, 24 h; for activity at 6.25 µg/mL: 6.25 μg/ml; for activity at 12.5 µg/mL: 12.5 μg/ml; for activity at 25 µg/mL: 25 μg/ml; for activity at 50 µg/mL: 50 μg/ml; for protective effect on rhIL-1α-mediated PG degradation / GAG release: rhIL-1α 5 ng/ml; for activity at 100 µg/mL: 100 μg/ml
Procedure: Articular cartilage from hock joints of rabbits (2.5 kg body weight) was removed immediately after each animal was sacrificed and articular cartilage explants were obtained by following the method described by Sandy et al. (Biochem. Biophy Acta 543:36, 1978). Briefly, after the articular surfaces were surgically exposed under sterile conditions, approximately 200-220 mg articular surfaces per joint were dissected and submerged into complete medium (DMEM, supplemented with heat inactivated 5% FBS; penicillin 100 U/ml; streptomycin 100 ug/ml). They were then rinsed several times with the complete medium and incubated for 1 to 2 days at 37° C. in a humidified 5% CO2/95% air incubator for stabilization. The complete medium was replaced with a basal medium (DMEM, supplemented with heat-inactivated 1% FBS, 10 mM HEPES, and penicillin 100 U/ml streptomycin 100 μg/ml). Approximately 30 mg cartilage pieces (2×3×0.35 mm/piece) were placed in 24-well plates and treated with given concentrations of test agents. After pretreatment for 1 h, 5 ng/ml of rhIL-1α was added to the culture medium and further incubated at 37° C. in a humidified 5% CO2/95% air incubator. The culture medium was collected 24 h later and stored at −20° C. until assay.
The amount of sulphated GAGs (e.g., released from proteoglycans) in the medium at the end of the reaction reflects the amount of articular cartilage degradation, which was determined using the commercially available 1,9-dimethy-methylene blue method according to the instructions of the manufacturer (Blyscan™ assay, Accurate Chemical and Scientific Corp., Westbury, N.Y.).

Sprague-Dawley (SD) rats = test: Monosodium iodoacetate (MIA) induced osteoarthritis rat model; assay type: in vivo; conditions: for reduction in pain sensitivity: 10 mg/kg oral per day; for Pain sensitivity, % (of week 0 mean) / Pain sensitivity, Mean: oral 10 mg/kg
Procedure: The animals were randomized and assigned to treatment groups before the study began. After anesthetization with isoflurane, rats were injected with 50 μl containing 1 mg Monosodium iodoacetate (Sigma, St. Louis, Mo.; lot #SLBB6147V) using a 26 gauge needle inserted through the patellar ligament into the intra-articular space of the right knee. Normal rats were injected with an equivalent volume of saline instead of MIA. […] The first sample treatment was administered 1 hr before MIA injection. Normal and control rats were given orally an equal volume of vehicle (0.5% CMC in saline). Body weight and allodynia were measured once a week for 4 weeks. Allodynia was evaluated by measuring responsiveness to a tip of Randall-Selitto test (2390 series, IITC, Woodland Hills, Calif.) applied perpendicular to the central plantar surface of the right hind paw.
Male Sprague—Dawley (SD) rats weighing about 170 to about 230 g (6 weeks of age) were purchased and acclimated for one week. […] Each group was orally gavaged with their respective treatment. Anesthetized rats were injected with 0.8 mg of MIA in a 50 μl saline solution into the intra-articular pocket one hour after the second dose of treatments. Pain sensitivity was measured once a week using a Randall-Salitto meter and treatment lasted for 6 weeks. Body weights were measured once a week to calculate the respective weekly dosage of each group.

Lewis rats = test: Carrageenan-induced rat paw edema model (paw edema and pain sensitivity); assay type: in vivo; conditions: for Pain sensitivity, percent change of vehicle / Paw edema, percent change of vehicle: 100 mg/kg oral 1 hr after carrageenan, female Lewis rats; for Pain sensitivity (Analgesia), percent change vs. vehicle, 1 hr / Paw Edema (Inflammation), percent change vs. vehicle, 1 hr: 1 hr after treatment; for Pain sensitivity (Analgesia), percent change vs. vehicle, 3 hr / Paw Edema (Inflammation), percent change vs. vehicle, 3 hr: 3 hr after treatment; for Pain sensitivity (Analgesia), percent change vs. vehicle, 5 hr / Paw Edema (Inflammation), percent change vs. vehicle, 5 hr: 5 hr after treatment; for analgesic and anti-inflammatory activity: oral, rosmarinic acid 200 mg/kg, eriocitrin 100 mg/kg, NAG 166 mg/kg
Procedure: Local inflammation was induced by intraplantar injection of carrageenan λ (Sigma, St. Louis, Mo.; 100 μl of 1% [w/v] in saline) into the plantar surface of right hind paw of sedated rat (with 2.5% isoflurane) at time 0 (T=0) (Gamache et al., J Neurosurg. 65:679, 1986; Guay et al., J. Biol. Chem. 279:24866, 2004; Chou et al., Anesth. Analg. 97:1724, 2003). Rats were acclimated in a procedure room for 20-30 minutes before each measurement was taken. Allodynia was evaluated by measuring responsiveness to the tip of a Randell-Selitto paw pressure test applied perpendicular to the central plantar surface of the right hind paw. A positive response to the applied pressure, noted by sharp withdrawal of the paw, was recorded automatically by an electronic Von Frey Anesthesiometer (2390 series Electrovonfrey, IITC, Woodland Hills, Calif.) (Vivancos et al., Braz. J. Med. Biol. Res. 37:391, 2004). Mechanical allodynia was evaluated before carrageenan inoculation, and thereafter at 1 hr, 2 hr, 4 hr and 6 hr. Paw edema volume was measured with the use of Plethysmometer (IITC, Woodland Hills, Calif.; Model 520) at time 0 (before carrageenan), and then 1 hr, 2 hr, 4 hr, and 6 hr after carrageenan injection. Animals (N=5 per group) were orally gavaged with a positive control ibuprofen (Spectrum Chemical MFG, Gardena, Calif.) (100 or 200 mg/kg); test articles such as: extracts, and combinations of extracts at various doses from 100, 200, 300 to 400 mg/kg and vehicle control (propylene glycol) were given 1 hour after carrageenan inoculation unless specified otherwise.

[2] = rabbit cartilage explants with rhIL-1α 5 ng/ml (=100)
[3] = MIA OA rats, 10 mg/kg oral, 6 weeks, modified Mankin scoring
[4] = rhIL-1α 5 ng/ml (IL-1α alone = 100)
[5] = 100 mg/kg oral, listed as eriocitrin

## COc1cc(O)c(CC=C(C)C)c(O)c1C(=O)/C=C/c1ccc(O)cc1 [Compound 13, xanthohumol]
[1]; [2]
  activity at 6.25 µg/mL: 77.4%
  activity at 12.5 µg/mL: 55.3%
  activity at 25 µg/mL: 59.2%
  activity at 50 µg/mL: 51.2%

## O=C(O)Cc1ccccc1Nc1c(Cl)cccc1Cl [Diclofenac]
Sprague-Dawley (SD) rats; week 5
  reduction in pain sensitivity: 20.8%
Sprague-Dawley (SD) rats; week 6
  reduction in pain sensitivity: 18.2%
Sprague-Dawley (SD) rats; G:M 500 mg/kg, Diclofenac 10 mg/kg, 6 weeks
  articular cartilage matrix integrity, total Mankin score vs. vehicle: not statistically significant
Sprague-Dawley (SD) rats; MIA OA rats, 10 mg/kg oral, 6 weeks
  Total Mankin Score: 4.9 ± 2.69
Sprague-Dawley (SD) rats; [3]
  Cellular Abnormality (0-3) histopathological score: 1.3 ± 0.67
  Safranin-O Staining (0-4) histopathological score: 1.7 ± 0.82
Sprague-Dawley (SD) rats; MIA OA rats, Week 0
  Pain sensitivity, % (of week 0 mean): 100.00%
Sprague-Dawley (SD) rats; MIA OA rats, Week 0, Randall-Salitto meter
  Pain sensitivity, Mean: 173.20
Sprague-Dawley (SD) rats; MIA OA rats, Week 1
  Pain sensitivity, % (of week 0 mean): 84.51%
Sprague-Dawley (SD) rats; MIA OA rats, Week 1, Randall-Salitto meter
  Pain sensitivity, Mean: 146.37
Sprague-Dawley (SD) rats; MIA OA rats, Week 2
  Pain sensitivity, % (of week 0 mean): 89.88%
Sprague-Dawley (SD) rats; MIA OA rats, Week 2, Randall-Salitto meter
  Pain sensitivity, Mean: 155.67
Sprague-Dawley (SD) rats; MIA OA rats, Week 3
  Pain sensitivity, % (of week 0 mean): 94.05%
Sprague-Dawley (SD) rats; MIA OA rats, Week 3, Randall-Salitto meter
  Pain sensitivity, Mean: 162.90
Sprague-Dawley (SD) rats; MIA OA rats, Week 4
  Pain sensitivity, % (of week 0 mean): 87.12%
Sprague-Dawley (SD) rats; MIA OA rats, Week 4, Randall-Salitto meter
  Pain sensitivity, Mean: 150.90
Sprague-Dawley (SD) rats; MIA OA rats, Week 5
  Pain sensitivity, % (of week 0 mean): 84.43%
Sprague-Dawley (SD) rats; MIA OA rats, Week 5, Randall-Salitto meter
  Pain sensitivity, Mean: 146.23
Sprague-Dawley (SD) rats; MIA OA rats, Week 6
  Pain sensitivity, % (of week 0 mean): 83.28%
Sprague-Dawley (SD) rats; MIA OA rats, Week 6, Randall-Salitto meter
  Pain sensitivity, Mean: 144.23

## Oc1cc(O)cc(/C=C/c2ccc(O)cc2O)c1 [Oxyresveratrol]
Lewis rats; 1 hr
  Pain sensitivity, percent change of vehicle: 53.3* %
  Paw edema, percent change of vehicle: 44.7* %
Lewis rats; 3 hr
  Pain sensitivity, percent change of vehicle: 54.8* %
  Paw edema, percent change of vehicle: 54.5* %
Lewis rats; 5 hr
  Pain sensitivity, percent change of vehicle: 38.5* %
  Paw edema, percent change of vehicle: 38.3* %
[1]; [4]
  activity at 25 µg/mL: 59.8%
[1]
  protective effect on rhIL-1α-mediated PG degradation / GAG release: strong inhibitory effect

## C[C@@H]1O[C@@H](OC[C@H]2O[C@@H](Oc3cc(O)c4c(c3)O[C@H](c3ccc(O)c(O)c3)CC4=O)[C@H](O)[C@@H](O)[C@@H]2O)[C@H](O)[C@H](O)[C@H]1O [Eriocitrin]
Lewis rats; 100 mg/kg oral
  Pain sensitivity (Analgesia), percent change vs. vehicle, 1 hr: 20.4* %
  Paw Edema (Inflammation), percent change vs. vehicle, 1 hr: 17.2%
  Pain sensitivity (Analgesia), percent change vs. vehicle, 3 hr: 36.4* %
  Paw Edema (Inflammation), percent change vs. vehicle, 3 hr: 36.0* %
  Pain sensitivity (Analgesia), percent change vs. vehicle, 5 hr: 25.2* %
  Paw Edema (Inflammation), percent change vs. vehicle, 5 hr: 30.0* %
Lewis rats; [5]
  Pain sensitivity (Analgesia), percent change vs. vehicle, 1 hr: 20.4%
  Pain sensitivity (Analgesia), percent change vs. vehicle, 3 hr: 36.4%
  Paw Edema (Inflammation), percent change vs. vehicle, 3 hr: 36.0%
  Pain sensitivity (Analgesia), percent change vs. vehicle, 5 hr: 25.2%
  Paw Edema (Inflammation), percent change vs. vehicle, 5 hr: 30.0%
Lewis rats
  analgesic and anti-inflammatory activity: significant anti-inflammatory and analgesic activities

## CC1(C)C=Cc2c(ccc3c2OC[C@@H](c2ccc(O)cc2O)C3)O1 [glabridin]
[1]; [2]
  activity at 6.25 µg/mL: 66.1%
  activity at 12.5 µg/mL: 47.9%
  activity at 25 µg/mL: 47.5%
  activity at 50 µg/mL: 46.3%

## OC[C@H]1O[C@@H](Oc2cc(O)cc(/C=C/c3ccc(O[C@@H]4O[C@H](CO)[C@@H](O)[C@H](O)[C@H]4O)cc3O)c2)[C@H](O)[C@@H](O)[C@@H]1O [Mulberoside A, mulberroside A]
Lewis rats; 1 hr
  Pain sensitivity, percent change of vehicle: 54.2* %
  Paw edema, percent change of vehicle: 48.4* %
Lewis rats; 3 hr
  Pain sensitivity, percent change of vehicle: 52.2* %
  Paw edema, percent change of vehicle: 50.6* %
Lewis rats; 5 hr
  Pain sensitivity, percent change of vehicle: 35.5* %
  Paw edema, percent change of vehicle: 37.3* %
[1]; [4]
  activity at 25 µg/mL: 73.1%
  activity at 50 µg/mL: 75.8%
  activity at 100 µg/mL: 70.5%
[1]
  protective effect on rhIL-1α-mediated PG degradation / GAG release: strong inhibitory effect

## CC(C)=CCc1c(-c2ccc(O)cc2O)oc2c(C3C=C(C)CC(c4ccc(O)cc4O)C3C(=O)c3ccc(O)cc3O)c(O)cc(O)c2c1=O (centres unmarked) [Kuwanon G]
Lewis rats; 1 hr
  Pain sensitivity, percent change of vehicle: 33.3* %
  Paw edema, percent change of vehicle: 36.5* %
Lewis rats; 3 hr
  Pain sensitivity, percent change of vehicle: 40.5* %
  Paw edema, percent change of vehicle: 37.7* %
Lewis rats; 5 hr
  Pain sensitivity, percent change of vehicle: 31.2* %
  Paw edema, percent change of vehicle: 29.3* %
[1]; [4]
  activity at 25 µg/mL: 56.6%
  activity at 50 µg/mL: 48%
  activity at 100 µg/mL: 44.4%

## O=C(/C=C/c1ccc(O)c(O)c1)O[C@H](Cc1ccc(O)c(O)c1)C(=O)O [RA, Rosmarinic acid]
Lewis rats; 200 mg/kg oral
  Pain sensitivity (Analgesia), percent change vs. vehicle, 1 hr: 38.9%
  Paw Edema (Inflammation), percent change vs. vehicle, 1 hr: 29.9%
  Pain sensitivity (Analgesia), percent change vs. vehicle, 3 hr: 45.0%
  Paw Edema (Inflammation), percent change vs. vehicle, 3 hr: 35.7%
  Pain sensitivity (Analgesia), percent change vs. vehicle, 5 hr: 30.6%
  Paw Edema (Inflammation), percent change vs. vehicle, 5 hr: 34.6%
Lewis rats
  analgesic and anti-inflammatory activity: significant anti-inflammatory and analgesic activities

## CC(C)=CCc1c(-c2ccc(O)cc2O)oc2c3c(cc(O)c2c1=O)OC(C)(C)C=C3 [Morusin]
Lewis rats; 1 hr
  Pain sensitivity, percent change of vehicle: 33.3* %
  Paw edema, percent change of vehicle: 37.3* %
Lewis rats; 3 hr
  Pain sensitivity, percent change of vehicle: 38.5* %
  Paw edema, percent change of vehicle: 40.0* %
Lewis rats; 5 hr
  Pain sensitivity, percent change of vehicle: 30.2* %
  Paw edema, percent change of vehicle: 38.0* %
[1]; [4]
  activity at 25 µg/mL: 48.4%
  activity at 50 µg/mL: 49.9%
  activity at 100 µg/mL: 33.6%
[1]
  protective effect on rhIL-1α-mediated PG degradation / GAG release: strong inhibitory effect

## CC(C)=CCC12Oc3c(c(O)cc(O)c3C3C=C(C)CC(c4ccc(O)cc4O)C3C(=O)c3ccc(O)cc3O)C(=O)C1(O)Oc1cc(O)ccc12 (centres unmarked) [Compound 15, cathayanon A]
[1]; [2]
  activity at 6.25 µg/mL: 101%
  activity at 12.5 µg/mL: 99.1%
  activity at 25 µg/mL: 81.3%
  activity at 50 µg/mL: 72.4%

## COc1cc(O)c(CC=C(C)C)c2c1C(=O)CC(c1ccc(O)cc1)O2 (centres unmarked) [Compound 14, isoxanthohumol]
[1]; [2]
  activity at 6.25 µg/mL: 97.8%
  activity at 12.5 µg/mL: 73.5%
  activity at 25 µg/mL: 41.7%
  activity at 50 µg/mL: 37.3%
